Source: ChEMBL document CHEMBL3507680, “University of Dundee, Gates Library screen for HepG2 cell viability”

Assay: Human HepG2 cell viability assay in 384 well format
Type: toxicity, cell-based
Design: dose 125 nL, time 70.5 hour; concentration not given beside the values
Conditions: HepG2 cells, read-out: Inhibition

Structure (SMILES)	cytotoxicity at 70.5 h
O=C(NCc1nnc2ccccn12)N1CCOC(c2cccs2)C1 (centres undefined)	-8.39%
c1ccc(COC[C@H]2CC[C@H]3[C@H](CCN3c3ncccn3)O2)nc1	-3.8%
CC(C(=O)N1CCCC1)N1CCN(c2ncc(Cl)cn2)CC1 (centres undefined)	-3.08%
CCCc1cc(NCCN2CCNC2=O)n2nccc2n1	-11.5%
O=C(CN1CCOC(Cn2cccn2)C1)NC1CCN(C2CC2)CC1 (centres undefined)	-6.52%
CCN(Cc1cnn(C)c1)C(=O)c1ccccc1O	-6.92%
CCN(CC1CCOCC1)C(=O)CCNC(=O)c1ccccc1F	-23.5%
CCC(=O)Nc1cc(Br)cn(C)c1=O	23.5%
Cc1cc(C)n(CC2CCCN2C(=O)CCc2nccs2)n1 (centres undefined)	-7.22%
Cc1nc(C(C)C)sc1C(=O)NCCSc1ccccn1	-11.3%
CC(=O)N1CC(=O)N(c2ccccc2)CC12CCN(Cc1ccoc1)C2 (centres undefined)	-14.4%
COCCC1(C(=O)O)CCCN(c2cc(C)c3ccccc3n2)C1 (centres undefined)	-8.76%
Cc1cnc(CNC(=O)N(Cc2ccccc2)CC(C)(C)O)s1	-3.13%
Cn1cccc1C(O)CNC(=O)COc1ccc(Cl)cc1Cl (centres undefined)	-12%
COc1ccc(CN2C[C@@H]3COC[C@@H](CC(=O)N4CCCC4)[C@@H]3C2)cc1	-19.9%
COC(=O)C(C)CN(Cc1ccccc1)C(=O)CN1CCCNC1=O (centres undefined)	-0.248%
Cc1ccccc1CN1C[C@@H]2OCC(=O)N(CC(N)=O)[C@@H]2C1	-0.694%
Cc1ncncc1C(=O)N1CCCN(Cc2nccn2C(C)C)CC1	-8.96%
O=C(c1sccc1C1CC1)N1CCN(c2nccs2)CC1	6.38%
CN(Cc1ccccc1)C(=O)Cn1nc(N2CCOCC2)ccc1=O	9.2%
Cc1nn(C)c(C)c1C1CCCN1Cc1cccc(C(N)=O)c1 (centres undefined)	4%
Fc1cccc(CN2C[C@@H]3CN(c4ncccn4)C[C@@H]3C2)c1	-3.5%
CC(NC(=O)N1CCCCCC1)c1ccc(S(N)(=O)=O)cc1 (centres undefined)	-7.46%

Structure (SMILES)	cytotoxicity at 70.5 h
Cc1cccc(OCCNC(=O)CN2CCCC2c2noc(C)n2)c1 (centres undefined)	-4.91%
CC(NC(=O)CCOc1ccccc1Cl)c1nnc2n1CCC2 (centres undefined)	-16.2%
Cc1nn2c(N3CCCC(C#N)C3)cc(-c3ccccc3)nc2c1C (centres undefined)	1.82%
CC(c1cccc(-c2cn(Cc3ccoc3)nn2)c1)N(C)C (centres undefined)	-2.66%
CCC(=O)Nc1nnc2n(Cc3cccc(OC)c3)[nH]c(C)c1-2	-0.289%
Cc1nc(-c2ccsc2)ccc1C(=O)O	-4.19%
CN(C)S(=O)(=O)NCC(Cc1cccc(F)c1)N1CCNC1=O (centres undefined)	-2.09%
CCOCC1CN(C(=O)C2=CCCC2)Cc2cnn(C)c21 (centres undefined)	-14.7%
Cc1n[nH]c(C2CN(C(=O)Cn3ccccc3=O)CCO2)n1 (centres undefined)	7.95%
O=C(c1c(F)cc(Br)cc1F)N1CCc2cnccc21	-5.62%
COc1ccc(F)cc1CN1CCCn2nc(CNS(C)(=O)=O)cc2C1	-5.04%
Cc1nc(CO[C@@H]2CN(Cc3ccc(F)cc3)[C@@H]3COC[C@@H]32)cs1	-7.17%
CN(C)C(=O)C1CN(Cc2cscn2)CCN(S(C)(=O)=O)C1 (centres undefined)	7.94%
COCC(=O)N1CCOC(c2ccc(N(C)C)cn2)C1 (centres undefined)	15.3%
CC(NC(=O)CCC1CCCCC1)c1nnc2n1CCC2 (centres undefined)	-4.91%
O=C(CN1CC(n2cccn2)C1)NCCc1c[nH]c2ccccc12	-13.2%
O=C(Nc1cccc(CN2CCC(CO)CC2)c1)c1cc(Cl)c[nH]1	32.7%
CC(=O)c1cc(C(=O)NC2(c3ccccc3)CCC2)n(C)c1	-6.28%
COCc1noc(CN2CCC3(CC2)[C@H](O)C[C@@H]3OC)n1	-5.38%
CC(=O)N1CCCC1c1cccc(C)c1C (centres undefined)	-4.04%
COc1ccccc1OCCC(=O)N1CCCC1Cn1cccn1 (centres undefined)	2.97%
CCOCCCNc1cc(C)nn2cnnc12	7.54%
O=C(c1ccc2ncsc2c1)N1CCC(C(=O)O)(n2cccn2)CC1	-8.58%

Structure (SMILES)	cytotoxicity at 70.5 h
N#Cc1ccc(Cl)cc1N1CCC(OC2CCOCC2)CC1	-3.88%
CCC(=O)N(CC)C(c1cccnc1)c1ccc2c(c1)CCO2 (centres undefined)	-2.76%
Cc1nc(Nc2nncs2)cc(C2CNC2)n1	-5.34%
CN(C(=O)CN1CCC(c2cc3ccccc3[nH]2)CC1)C(C)(C)C#N	-16.1%
CC(C)NC(=O)CCNC(=O)Nc1cccc(-c2nccn2C)c1	-2.81%
Cc1cc2c(=O)n3c(nc2s1)CCN(Cc1cnc(C(C)C)nc1)CC3	-14.8%
CC(NCCn1cccn1)c1cc(F)ccc1F (centres undefined)	-3.98%
Cc1ccnc(NC(=O)c2c(C)oc(C)c2C)c1	9.9%
CCC(CN1CCOCC1)NC(=O)Cc1c(C)[nH]c2cc(C)cc(C)c12 (centres undefined)	0.203%
c1cnn(Cc2nnc3n2CCCN(CC2CCOCC2)C3)c1	-2.91%
O=C(CNc1cc2c(cc1Cl)OCCO2)NCC(F)(F)F	-3.78%
CCc1oc2ccc(NS(C)(=O)=O)cc2c1C(=O)OC	0.398%
CC(=O)Nc1ccc(OCc2noc(C(=O)N3CCCCC3)n2)cc1	-18.1%
CCC(CC)CN1CCCn2nc(CNC(=O)COC)cc2C1	-10.4%
O=C(O)[C@@H]1CN(C(=O)c2ccc(Cl)cc2)C[C@H]1c1cccc(F)c1	-12.9%
CN1CC(=O)N(c2ccccc2)CC12CCN(C(=O)c1cnccn1)C2 (centres undefined)	22.8%
Cn1cc(CC(=O)N2CCCC(c3cc(C(F)(F)F)[nH]n3)C2)cn1 (centres undefined)	15.9%
O=C(c1ncn2c(C3CCN(CC4CC4)CC3)ccnc12)N1CCCC1	0.745%
Cc1ccc(CC(=O)N2CCN(C3CCOC3=O)CC2)cc1 (centres undefined)	-1.49%
CC(C)c1nncn1CCNC(=O)c1c(O)cc(F)cc1F	-4.67%
CCS(=O)(=O)CCCN1CCSCC1c1ccc(Cl)cc1 (centres undefined)	-13.2%
Cn1ccnc1-c1nc(N2CCCCC2)ncc1-c1ccccc1F	-7.17%
Cc1nccn1-c1ccc(NC(=O)C2CCCN2Cc2c[nH]cn2)cc1 (centres undefined)	14.9%

Structure (SMILES)	cytotoxicity at 70.5 h
CN1Cc2c(C(=O)NCC3CCCO3)ncn2-c2ccccc2S1(=O)=O (centres undefined)	-0.787%
Cc1cccc(CN2CCc3ncnc(N4CCOCC4)c3CC2)n1	-1.5%
CCc1oc(C(=O)N2CC[C@H]3CC[C@@H](C2)N3)cc1CN(CC)CC	-8.75%
CSc1nccn1-c1cccc(C(=O)NCC(F)(F)F)c1	-0.984%
Cc1noc(-c2ccnc(Oc3ccc(CN4CCCC4)cc3F)c2)n1	13.3%
O=C(O)c1cn(CC2CCCN(c3nccc4occc34)C2)nn1 (centres undefined)	-14.6%
CN1CCc2nc(C3CCCN(C(=O)CC4CCCCC4)C3)ncc2C1 (centres undefined)	0.186%
O=C(O)[C@@H]1CCN(C(=O)c2cscn2)[C@@H]1c1ccc(F)cc1	-2.87%
Cc1nn(C)c(C)c1C1CCCN1C(=O)c1cc[nH]n1 (centres undefined)	-3.7%
CC1Cc2ccccc2N1Cc1occc1C(=O)OCC(N)=O (centres undefined)	2.01%
O=C(CCCc1nc2ccccc2[nH]1)N1CCCC(n2cccn2)C1 (centres undefined)	-1.12%
O=C(O)CCc1cc2n(n1)CCCN(C(=O)c1ccc(F)cc1F)C2	-0.277%
COc1ccccc1OC1CN(C(=O)c2ccccc2C(C)=O)C1	-19.5%
COc1ccc(CC(=O)N2CCCC(n3nc(C)cc3C)C2)cc1F (centres undefined)	-9.02%
O=C(c1cc2ccccc2[nH]c1=O)N1CCC2(CCCNC2)C1 (centres undefined)	-4.47%
O=C(c1ccncc1F)N1CCOC(c2cccc(O)c2)C1 (centres undefined)	2.22%
NC(=O)NCCC(=O)N1CCC(c2cc(Cc3ccccc3)n[nH]2)CC1	-6.87%
NC(=O)COc1cccc(Cn2cccn2)c1	-3.94%
Cc1ccc(OCC(=O)NS(=O)(=O)Cc2ccccc2)cc1	-5.22%
CN1CCN(Cc2cnc3n2CCN(Cc2cccs2)C3)CC1	3.18%
CCCn1cnnc1CNC1CCSC1 (centres undefined)	-7.63%
Cc1cc(C)n(-c2ccc(NCCNS(=O)(=O)c3ccccc3)nn2)n1	-5.4%
COCCc1noc(C2CCN(S(=O)(=O)c3cccs3)CC2)n1	10.6%

Structure (SMILES)	cytotoxicity at 70.5 h
c1cnnc(N2CCCC2CNc2cnc3ccccc3n2)c1 (centres undefined)	-2.61%
Cc1nc(-c2ccncc2)ncc1C(C)NC(=O)Cn1ccccc1=O (centres undefined)	9.51%
O=C(c1ccc(Cl)cc1)N1CCC(N2CCNC2=O)CC1	-3.41%
O=C(Cc1ccc(F)c(Br)c1)NC1CCN(CC(F)F)CC1	3.07%
CN(CCCc1ccccc1)C(=O)c1ccccc1NCC(=O)O	-13.3%
CCNc1cc2c(nn1)CCN(C(=O)c1ccc(-n3cnnc3)cc1)C2	-0.933%
CC(C)C1CN(C(=O)c2cc(C3CC3)n[nH]2)CCC(=O)N1CC1CC1 (centres undefined)	-3.1%
Cn1cc(CN(CC2(O)CCNC2)C2CCCCC2)cn1 (centres undefined)	5.59%
CC(C)c1ccc(-n2cc(O)c(C(=O)N3CCC(C(N)=O)CC3)n2)cc1	0.806%
CCc1nnc(Nc2cccc(C3CCN(C(=O)CNC)CC3)n2)s1	10.1%
CC(C)c1noc(OCc2cccc(S(=O)(=O)N(C)C)c2)n1	-17.9%
CC1CCCN(C(=O)c2ccc(-c3ccco3)o2)C1 (centres undefined)	-22.7%
CCC(=O)N1CCC(c2nc(C)c3c(n2)N(C)CCC3)CC1	-2.67%
Cc1ccc(F)cc1CC(=O)N(CCN1CCOCC1)Cc1ccco1	-6.95%
CC(=O)NC1CCN(c2cc(C3CCNCC3)ccn2)CC1	-2.92%
COCC1CN(Cc2ccoc2)Cc2cn(CC3CCCC3)nc21 (centres undefined)	-4.4%
Cc1ncc2c(n1)CCN(Cc1nc3ccccc3o1)C2	0.854%
COc1ccc(-c2nc(CN3CCN(CCO)CC3)co2)cc1	30.3%
c1ccc2oc(CN3CCCC3c3noc(C4CC4)n3)nc2c1 (centres undefined)	-11.3%
Cc1noc(C)c1NC(=O)Cn1cc(Br)ccc1=O	0.532%
CN(C(=O)Cc1ccc(NC(=O)NC2CCC2)cc1)c1ccccc1	38.2%
CN1C[C@H]2CNC[C@@]2(C(=O)N2CCN(c3ncccc3C#N)CC2)C1	-6.13%
